Experimental data taken from patent US11447482B1, “Imidazopyridine and oxazolopyridine derivatives and analogs thereof, methods of preparation thereof, methods of HIF-2A pathway inhibition, and induction of ferroptosis” (KUDA Therapeutics, Inc., priority 2019, dated 2022).

What follows are compounds tested against HIF-2α transcriptional activity (assay: Hypoxia-responsive element-driven luciferase (HRE-Luc) assay). Conditions: 786-0 CCRCC cells stably expressing HRE-Luc, 24 hours treatment.
Assay type: cell-based, human
Method: Screens for inhibitory activity of compounds described herein were performed using 786-0 CCRCC cells that stably express HRE-Luc: 5 copies of the hypoxia-responsive element (HRE) fused to the pGL3 luciferase reporter (Promega Corp, Madison Wis.). 786-0 cells are pVHL deficient and thus constitutively express HIF-2α independently of cellular oxygen tension (Maxwell, Wiesener et al. 1999). Since 786-0 cells lack HIF-1α, HRE-driven luciferase activity is primarily HIF-2α driven, and has been previously validated (Koh, Lemos et al. 2011). Cells were maintained at log phase growth in Dulbecco's […] (DMEM) with 10% FBS in a humidified incubator at 37° C. with 5% CO2. For screening assays, cells were seeded at a density of 4,000 cells in 50 μl of complete media/well in quadruplicate wells/point in a 96-well plate. 24 hours later, 50 μl of a 2× concentration of test compound was added to each well. Compounds were diluted from a 5-10 mM stock in DMSO and final concentrations of DMSO in each well in controls and treated wells were kept constant at ≤0.6% DMSO. After 24 hours' treatment, luciferase activity was measured using the Steady-Glo Luciferase assay system (Promega Corp) according to the manufacturer's protocol. Cell viability was measured in quadruplicate parallel wells using resazurin as recommended by the manufacturer (R&D systems, Minneapolis, Minn.). Data for luciferase and resazurin were normalized to DMSO treated controls (defining 100%) and wells containing assay reagent but no cells (defining 0%), and graphed using the log inhibitor versus normalized response option in Prism7 Graphpad software. Representative data determined using Steady-Glo luciferase and resazurin are shown in FIGS. 1A and 1B respectively, with error bars showing standard error of the mean (SEM).

| SMILES | IC50 [µM] |
| --- | --- |
| COc1ccc(-c2nnc(Nc3nc4c(Cl)nccc4[nH]3)o2)cc1 [KD022, N-(4-chloro-1H-imidazo[4,5-c]75yridine-2-yl)-5-(4-methoxyphenyl)-1,3,4-oxadiazol-2-amine] | 28.3 |

Same assay, conditions: Homo sapiens; 786-0 CCRCC cells stably expressing HRE-Luc, 24 hours treatment

| SMILES | IC50 [µM] |
| --- | --- |
| Cc1cncc2nc(Nc3nnc(-c4ccc(F)cc4)o3)[nH]c12 [KD006TFA, 5-(4-Fluorophenyl)-N-(7-methyl-1H-imidazo[4,5-c]pyridin-2-yl)-1,3,4-oxadiazol-2-amine] | 23.8 |
| COc1nccc2[nH]c(Nc3nnc(-c4ccc(OC(C)C)cc4)o3)nc12 [KD041, 5-(4-Isopropoxyphenyl)-N-(4-methoxy-1H-imidazo[4,5-c]pyridin-2-yl)-1,3,4-oxadiazol-2-amine] | 22.6 |
| Fc1ccc(-c2nnc(Nc3nc4cnc(Cl)nc4[nH]3)o2)cc1 [KD013, N-(2-Chloro-9H-purin-8-yl)-5-(4-fluorophenyl)-1,3,4-oxadiazol-2-amine] | 37.6 |
| COc1nccc2[nH]c(Nc3nnc(-c4ccc(OC(F)(F)F)cc4)o3)nc12 [KD020, N-(4-methoxy-1H-imidazo[4,5-c]pyridin-2-yl)-5-(4-(trifluoromethoxy)phenyl)-1,3,4-oxadiazol-2-amine] | 16.5 |
| Fc1ccc(-c2nnc(Nc3nc4ccnc(-c5ccc6c(c5)OCO6)c4[nH]3)o2)cc1 [KD030, N-(4-(Benzo[d][1,3]dioxol-5-yl)-3H-imidazo[4,5-c]pyridin-2-yl)-5-(4-fluorophenyl)-1,3,4-oxadiazol-2-amine] | 19.9 |
| Fc1ccc(-c2nnc(Nc3nc4cncc(N5CCOCC5)c4[nH]3)o2)cc1 [KD017, 5-(4-Fluorophenyl)-N-(7-morpholino-1H-imidazo[4,5-c]pyridin-2-yl)-1,3,4-oxadiazol-2-amine] | 16.3 |
| COc1ccc2[nH]c(Nc3nnc(-c4ccc(F)cc4)o3)nc2n1 [KD003, 5-(4-Fluorophenyl)-N-(5-methoxy-1H-imidazo[4,5-b]pyridin-2-yl)-1,3,4-oxadiazol-2-amine] | 8.16 |
| COc1cccc(-c2nccc3nc(Nc4nnc(-c5ccc(F)cc5)o4)[nH]c23)c1 [KD018, 5-(4-Fluorophenyl)-N-(4-(3-methoxyphenyl)-3H-imidazo[4,5-c]pyridin-2-yl)-1,3,4-oxadiazol-2-amine] | 72.7 |
| COc1nccc2[nH]c(Nc3nnc(-c4ccc(C(C)(C)C)cc4)o3)nc12 [KD042, 5-(4-(tert-Butyl)phenyl)-N-(4-methoxy-1H-imidazo[4,5-c]pyridin-2-yl)-1,3,4-oxadiazol-2-amine] | > 100 |
| COc1ccc2nc(Nc3nnc(-c4ccc(F)cc4)o3)sc2n1 [KD008, 5-(4-Fluorophenyl)-N-(5-methoxythiazolo[5,4-b]pyridin-2-yl)-1,3,4-oxadiazol-2-amine] | 52.3 |
| COc1nccc2[nH]c(Nc3nnc(-c4ccc(C#N)cc4)o3)nc12 [KD031, 4-(5-((4-Methoxy-1H-imidazo[4,5-c]pyridin-2-yl)amino)-1,3,4-oxadiazol-2-yl) benzonitrile] | 3.7 |
| COc1nccc2[nH]c(Nc3nnc(-c4ccc(C)cc4)o3)nc12 [KD028, N-(4-methoxy-1H-imidazo[4,5-c]pyridin-2-yl)-5-(p-tolyl)-1,3,4-oxadiazol-2-amine] | 9.12 |
| CS(=O)(=O)C1CCN(c2cc3[nH]c(Nc4nnc(-c5ccc(F)cc5)o4)nc3cn2)CC1 [KD015, 5-(4-Fluorophenyl)-N-(6-(4-(methylsulfonyl)piperidin-1-yl)-1H-imidazo[4,5-c]pyridin-2-yl)-1,3,4-oxadiazol-2-amine] | > 100 |
| Fc1ccc(-c2nnc(Nc3nc4cnc(N5CCOCC5)cc4[nH]3)o2)cc1 [KD009, 5-(4-Fluorophenyl)-N-(6-morpholino-1H-imidazo[4,5-c]pyridin-2-yl)-1,3,4-oxadiazol-2-amine] | 15.4 |
| Fc1ccc(-c2nnc(Nc3nc4cnc(Cl)cc4[nH]3)o2)cc1 [KD004, N-(6-Chloro-1H-imidazo[4,5-c]pyridin-2-yl)-5-(4-fluorophenyl)-1,3,4-oxadiazol-2-amine] | 40.3 |
| COc1ccc(-c2nnc(Nc3nc4c(OC)nccc4[nH]3)o2)cc1F [KD032, 5-(3-Fluoro-4-methoxyphenyl)-N-(4-methoxy-1H-imidazo[4,5-c]pyridin-2-yl)-1,3,4-oxadiazol-2-amine] | 1.94 |
| COc1nccc2[nH]c(Nc3nnc(-c4ccc(N(C)C)cc4)o3)nc12 [KD027, N-(4-Methoxy-1H-imidazo[4,5-c]pyridin-2-yl)-5-(4-(dimethylamino)phenyl)-1,3,4-oxadiazol-2-amine] | 2.83 |
| COc1nccc2[nH]c(Nc3nnc(-c4ccc(C(F)(F)F)cc4)o3)nc12 [KD019, N-(4-methoxy-1H-imidazo[4,5-c]pyridin-2-yl)-5-(4-(trifluoromethyl)phenyl)-1,3,4-oxadiazol-2-amine] | 32.6 |
| COc1nccc2[nH]c(Nc3nnc(-c4ccc5c(c4)OCO5)o3)nc12 [KD026, N-(4-Methoxy-1H-imidazo[4,5-c]pyridin-2-yl)-5-(benzo[d][1,3]dioxol-5-yl)-1,3,4-oxadiazol-2-amine] | 2.72 |
| COc1ccc(-c2nnc(Nc3nc4ncccc4o3)o2)cc1 [KD029, N-(5-(4-Methoxyphenyl)-1,3,4-oxadiazol-2-yl)oxazolo[4,5-b]pyridin-2-amine] | 6.1 |
| COc1ccc(-c2nnc(Nc3nc4c(OC)nccc4[nH]3)o2)cn1 [KD038, N-(4-Methoxy-1H-imidazo[4,5-c]pyridin-2-yl)-5-(6-methoxypyridin-3-yl)-1,3,4-oxadiazol-2-amine] | 7.6 |
| COc1nccc2[nH]c(Nc3nnc(-c4ccc(OC5CC5)cc4)o3)nc12 [KD040, 5-(4-Cyclopropoxyphenyl)-N-(4-methoxy-1H-imidazo[4,5-c]pyridin-2-yl)-1,3,4-oxadiazol-2-amine] | 6.86 |
| CN1CCN(c2cc3[nH]c(Nc4nnc(-c5ccc(F)cc5)o4)nc3cn2)CC1 [KD010, 5-(4-Fluorophenyl)-N-(6-(4-methylpiperazin-1-yl)-1H-imidazo[4,5-c]pyridin-2-yl)-1,3,4-oxadiazol-2-amine] | > 100 |
| Fc1ccc(-c2nnc(Nc3nc4ccnc(N5CCOCC5)c4[nH]3)o2)cc1 [KD016, 5-(4-Fluorophenyl)-N-(4-morpholino-3H-imidazo[4,5-c]pyridin-2-yl)-1,3,4-oxadiazol-2-amine] | 10.2 |
| Fc1ccc(-c2nnc(Nc3nc4cnc(C(F)(F)F)cc4[nH]3)o2)cc1 [KD005HCL, 5-(4-Fluorophenyl)-N-(6-(trifluoromethyl)-1H-imidazo[4,5-c]pyridin-2-yl)-1,3,4-oxadiazol-2-amine] | 16.1 |
